Measurements published in publication PMC8621373, “New Bioactive Fused Triazolothiadiazoles as Bcl-2-Targeted Anticancer Agents” (International Journal of Molecular Sciences, 2021).
Several values for one entry are separate records, joined by “and”; a condition that tells them apart may be missing. Equal entries are not always repeated. Entries after “also recorded” stand apart in the source; their conditions may differ.

How the values were obtained:
MDA-MB-231 = test: Cell viability by MTT assay, MDA-MB-231; type: cell-based; conditions: Homo sapiens, growth inhibition, 72 h, mean ± SEM
Protocol: (§1) Human breast cancer (MDA-MB-231) and cervical cancer (HeLa) cells, obtained from the ATCC (Manassas, VA, USA), were maintained as previously described. Cytotoxic effects of the tested compounds were assessed using MTT assay. Briefly, 4000 cells in 0.1 mL of medium (Life Technologies, Paisley, UK) were seeded and allowed to adhere for 24 h. The cells were treated with different concentrations of the tested compounds (from 0.00001 to 100 µM) and incubated for 72 h. In total, 20 µL of (5 mg/mL) MTT reagent (3-[4,5-dimethylthiazol-2-yl]-2,5-diphenyl tetrazolium bromide) in PBS was added and incubated for 4 h. The developed purple colour following the addition of DMSO was measured using a Multiskan Go machine (spectrophotometer) at 570 nm absorbance. Each concentration experiment was repeated independently 6 times to establish reproducibility. The percentage cell viability was calculated following the formula below, and IC50 values were obtained by using GraphPad Prism 5 software (San Diego, CA, USA). Cell viability (%) = [(OD test − OD blank) ÷ (OD negative control − OD blank)] × 100(1)

HeLa = test: Cell viability by MTT assay, HeLa; type: cell-based; conditions: Homo sapiens, growth inhibition, 72 h, mean ± SEM
Protocol: as §1

KG1a = test: Cell viability CellTiter-Blue assay, KG1a; type: cell-based, human; conditions: for IC50: Homo sapiens, KG-1a, growth inhibition, CellTiter-Blue, 24 h, mean ± SEM
Protocol: (§2) Human acute myeloid leukemia KG1a and acute T-cell lymphocytic leukemia Jurkat cells were cultured and maintained as previously described. For each experiment, 15,000 cells in 0.1 mL of medium were seeded into a solid-black fluorescence 96-well plate and incubated for 24 h. The cells were treated with different concentrations of the test compounds (from 0.00001 to 100 µM) over a 10-fold dilution series and incubated for 24 h. CellTiter-Blue® solution was added, followed by reading of the fluorescence according to our previous protocol. IC50 values were obtained by using GraphPad Prism 5 software (San Diego, CA, USA). For each concentration, six independent experiments were carried out.

Jurkat = test: Cell viability CellTiter-Blue assay, Jurkat (Bcl-2-negative); type: cell-based, human; conditions: Bcl-2-negative cell line; for IC50: Homo sapiens, Jurkat, growth inhibition, CellTiter-Blue, 24 h, mean ± SEM
Protocol: as §2

His-tagged Bcl-2 protein = His-tagged Bcl-2 protein (Homo sapiens, UniProt P10415); test: Competitive ELISA binding assay (interruption of Bcl-2-Bim interaction); conditions: for IC50: competition with Bim peptide, mean and SEM of three independent measurements
Protocol: ELISA assay was performed to evaluate the ability of the compounds to compete with Bim protein and inhibit its interaction with Bcl-2 protein.. The addition of His-tagged Bcl-2 protein to a biotinylated Bim-coated plate according to our previously published protocol was followed by the addition of anti-His antibody (Abcam, Cambridge, UK) containing horseradish peroxidase enzyme (Qiagen, Crawley, UK), o-phenylenediamine (Sigma-Aldrich, UK) and hydrogen peroxide. The optical density was determined using a plate reader at wavelength of 450 nm. The experiments were carried out on three separate occasions, including both negative and positive controls. A plot of log nM concentration for each inhibitor against the percentage reduction in the Bim peptide was created, using non-linear regression curve analysis (GraphPad Prism 5, San Diego, CA, USA) and a software used to generate IC50 for the Bcl-2 inhibition activity.

[1] = tested on: Bcl-2-expressing human cancer cell lines (MDA-MB-231, HeLa and KG1a); test: Growth inhibition of Bcl-2-expressing human cancer cell lines (summary); type: cell-based; conditions: span over MDA-MB-231, HeLa and KG1a, read-out: IC50 against Bcl-2-expressing cell lines
Protocol: as §1, with “Cell viability (%) = [(OD test − OD blank) ÷ (OD negative control − OD blank)] × 100(1)” left out
Human acute myeloid leukemia KG1a and acute T-cell lymphocytic leukemia Jurkat cells were cultured and maintained as previously described. For each experiment, 15,000 cells in 0.1 mL of medium were seeded into a solid-black fluorescence 96-well plate and incubated for 24 h. […] CellTiter-Blue® solution was added, followed by reading of the fluorescence according to our previous protocol. […]

Chain of His-tagged Bcl-2 protein (P10415 whole entry): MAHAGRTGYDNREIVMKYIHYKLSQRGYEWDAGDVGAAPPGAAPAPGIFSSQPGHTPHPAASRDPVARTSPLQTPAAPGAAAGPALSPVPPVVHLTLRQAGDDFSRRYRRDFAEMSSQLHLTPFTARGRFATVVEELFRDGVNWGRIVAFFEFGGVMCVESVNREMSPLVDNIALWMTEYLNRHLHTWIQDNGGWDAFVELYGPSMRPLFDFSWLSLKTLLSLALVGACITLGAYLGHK

IC50 (MDA-MB-231)	IC50 (HeLa)	IC50 (Jurkat)	melting point	IC50 (His-tagged Bcl-2 protein)	ELISA IC50 compared to (−)-gossypol positive control (His-tagged Bcl-2 protein; competitive Bcl-2 ELISA)	IC50 [1]	Compound	IC50 (KG1a)	activity against Jurkat cells (in words) (Jurkat)	activity against KG1A cell line (in words) (KG1a; Acute Myeloid Leukemia cell line)
15 ± 0.6 µM	18.2 ± 0.6 µM	10.3 ± 0.14 µM	170 to 172 °C	–	–	–	Sc1nn2c(-c3c[nH]c4ccccc34)nnc2s1 [Compound 4, 3-(1H-Indol-3-yl)-[1,2,4]-triazolo[3,4-b]-[1,3,4]-thiadiazole-6-thiol]	28.4 ± 0.43 µM	–	–
2.72 ± 0.32 µM	0.54 ± 0.02 µM	8.12 ± 0.16 µM	183 to 185 °C	–	–	–	Ic1ccc(-c2nn3c(-c4c[nH]c5ccccc45)nnc3s2)cc1 [Compound 5a, 3-[6-(4-Iodophenyl)-[1,2,4]-triazolo[3,4-b]-[1,3,4]-thiadiazol-3-yl]-1H-indole]	1.66 ± 0.03 µM	–	–
1.7 ± 0.61 µM	2.7 ± 0.9 µM	> 100 µM	192 to 194 °C	1.14 ± 0.09 µM	–	–	COc1ccc(-c2nn3c(-c4c[nH]c5ccccc45)nnc3s2)cc1 [Compound 5b, 3-[6-(4-Methoxyphenyl)-[1,2,4]-triazolo[3,4-b]-[1,3,4]-thiadiazol-3-yl]-1H-indole]	3.14 ± 0.19 µM	no activity	–
16.3 ± 0.19 µM	12.5 ± 0.23 µM	> 100 µM	201 to 203 °C	–	–	–	Cc1ccc(-c2nn3c(-c4c[nH]c5ccccc45)nnc3s2)cc1 [Compound 5c, 3-(6-p-Tolyl-[1,2,4]-triazolo[3,4-b]-[1,3,4]-thiadiazol-3-yl)-1H-indole]	> 100 µM	no activity	inactive
4.9 ± 0.75 µM	6.48 ± 0.67 µM	45.5 ± 0.4 µM	179 to 182 °C	–	–	–	Brc1cccc(-c2nn3c(-c4c[nH]c5ccccc45)nnc3s2)c1 [Compound 5d, 3-[6-(3-Bromophenyl)-[1,2,4]-triazolo[3,4-b]-[1,3,4]-thiadiazol-3-yl]-1H-indole]	20.2 ± 0.46 µM	–	–
8.29 ± 0.9 µM	9.8 ± 0.3 µM	> 100 µM	196 to 198 °C	4.6 ± 0.19 µM	–	–	Brc1ccc(-c2nn3c(-c4c[nH]c5ccccc45)nnc3s2)cc1 [Compound 5e, 3-[6-(4-Bromophenyl)-[1,2,4]-triazolo[3,4-b]-[1,3,4]-thiadiazol-3-yl]-1H-indole]	4.9 ± 0.73 µM	no activity	–
12.5 ± 0.66 µM	3.6 ± 0.52 µM	20.5 ± 0.52 µM	185 to 187 °C	–	–	–	Clc1cccc(-c2nn3c(-c4c[nH]c5ccccc45)nnc3s2)c1 [Compound 5f, 3-[6-(3-Chlorophenyl)-[1,2,4]-triazolo[3,4-b]-[1,3,4]-thiadiazol-3-yl]-1H-indole]	10.2 ± 0.65 µM	–	–
7.5 ± 0.98 µM	1.99 ± 0.28 µM	65.1 ± 1.25 µM	183 to 185 °C	–	–	–	Fc1cccc(-c2nn3c(-c4c[nH]c5ccccc45)nnc3s2)c1 [Compound 5g, 3-[6-(3-Fluorophenyl)-[1,2,4]-triazolo[3,4-b]-[1,3,4]-thiadiazol-3-yl]-1H-indole]	8.6 ± 0.22 µM	–	–
3.16 ± 0.32 µM	22.1 ± 0.45 µM	58.1 ± 1.3 µM	196 to 198 °C	–	–	–	O=[N+]([O-])c1ccc(-c2nn3c(-c4c[nH]c5ccccc45)nnc3s2)cc1 [Compound 5h, 3-[6-(4-Nitrophenyl)-[1,2,4]-triazolo[3,4-b]-[1,3,4]-thiadiazol-3-yl]-1H-indole]	34.5 ± 0.3 µM	–	–
4.22 ± 0.38 µM	2.7 ± 0.19 µM	> 100 µM	194 to 196 °C	1.74 ± 0.15 µM	–	–	FC(F)(F)c1ccc(-c2nn3c(-c4c[nH]c5ccccc45)nnc3s2)cc1 [Compound 5i, 3-[6-(4-Trifluoromethylphenyl)-[1,2,4]-triazolo[3,4-b]-[1,3,4]-thiadiazol-3-yl]-1H-indole]	2.19 ± 0.72 µM	no activity	–
3.6 ± 0.28 µM	2.18 ± 0.73 µM	32.2 ± 1.2 µM	–	–	–	–	O=[N+]([O-])c1cccc(-c2nn3c(-c4c[nH]c5ccccc45)nnc3s2)c1 [Compound 5j, 3-[6-(3-Nitrophenyl)-[1,2,4]-triazolo[3,4-b]-[1,3,4]-thiadiazol-3-yl]-1H-indole]	6.82 ± 0.45 µM	–	–
0.7 ± 0.3 µM	0.57 ± 0.08 µM	> 100 µM	178 to 180 °C	0.32 µM and 0.3 µM and 0.34 µM and 0.36 µM	two-fold lower	0.31 to 0.7 µM	COc1ccc(-c2nn3c(-c4c[nH]c5ccccc45)nnc3s2)c(OC)c1 [Compound 5k, 3-[6-(2,4-Dimethoxyphenyl)-[1,2,4]-triazolo[3,4-b]-[1,3,4]-thiadiazol-3-yl]-1H-indole]	0.31 ± 0.32 µM	without inhibiting; also recorded: no activity	–
0.35 ± 0.29 µM	1.42 ± 0.17 µM	> 100 µM	193 to 195 °C	0.45 ± 0.03 µM	–	–	COc1cc(OC)cc(-c2nn3c(-c4c[nH]c5ccccc45)nnc3s2)c1 [Compound 5l, 3-[6-(3,5-Dimethoxyphenyl)-[1,2,4]-triazolo[3,4-b]-[1,3,4]-thiadiazol-3-yl]-1H-indole]	1.15 ± 0.27 µM	no activity	–

Compound	IC50 (MDA-MB-231)	IC50 (HeLa)	IC50 (Jurkat)	melting point	IC50 (His-tagged Bcl-2 protein)	ELISA IC50 compared to (−)-gossypol positive control (His-tagged Bcl-2 protein; competitive Bcl-2 ELISA)	IC50 [1]	IC50 (KG1a)	activity against Jurkat cells (in words) (Jurkat)	activity against KG1A cell line (in words) (KG1a; Acute Myeloid Leukemia cell line)
Cc1cc2c(C(C)C)c(O)c(O)c(C=O)c2c(O)c1-c1c(C)cc2c(C(C)C)c(O)c(O)c(C=O)c2c1O [Gossypol, gossypol, reference compound]	5.5 ± 0.35 µM	4.43 ± 0.54 µM	18.1 ± 1.3 µM	–	–	–	–	4.2 ± 0.35 µM	–	–
